Drawing on PubChem BioAssay AID743297 (The Scripps Research Institute Molecular Screening Center, 2014), this text covers IC50 for one compound.

The assay deals with Tyrosyl-DNA phosphodiesterase 2 (Homo sapiens) (UniProt O95551). In words: potency against TDP2 phosphodiesterase activity – biochemical, epi absorbance, IC50, dose response (AID 743297). The note with it: recombinant TDP2, T5PNP hydrolysis, absorbance 415 nm.

Calls of active or inactive are those of the source.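 How the source made its calls: active means IC50 against TDP2 at or below a set limit; inactive means IC50 above that limit.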

Sequence of Tyrosyl-DNA phosphodiesterase 2 (Homo sapiens) (O95551 whole entry, looked up): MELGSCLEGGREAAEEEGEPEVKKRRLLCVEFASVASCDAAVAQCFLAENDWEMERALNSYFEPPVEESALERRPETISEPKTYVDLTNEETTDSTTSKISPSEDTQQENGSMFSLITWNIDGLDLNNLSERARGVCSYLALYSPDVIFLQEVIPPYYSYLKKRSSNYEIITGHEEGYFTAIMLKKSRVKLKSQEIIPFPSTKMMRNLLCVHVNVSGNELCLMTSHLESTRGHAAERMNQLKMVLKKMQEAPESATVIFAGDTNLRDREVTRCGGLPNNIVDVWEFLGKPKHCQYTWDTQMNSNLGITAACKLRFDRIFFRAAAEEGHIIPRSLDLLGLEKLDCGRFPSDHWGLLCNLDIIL

In the case of `C[c-]1[c-](C)[c-](C)[c-](C)[c-]1C.[Fe].c1cc2nccc(N3CCCC3)[c-]2c1` (stereo unspecified), the IC50 entry is “inactive”.
